# Laboratory results from patent US20250002493A1, “PYRIDONE COMPOUND AND PREPARATION METHOD THEREFOR, PHARMACEUTICAL COMPOSITION AND USE” (NANJING CHINA-AUSTRALIA INSTITUTE OF TRANSLATIONAL MEDICINE …, priority 2022, published 2025).
# pIC50, pKi: −log10 of the molar value.
# Legend:
# [1] = biological target: BIR3 domain of human cIAP1 (residues 255-364) (Homo sapiens (Human), UniProt Q13490); experiment: Fluorescence polarization competitive binding to cIAP1 BIR3; details: FP, peptide probe 5 nM, cIAP1 BIR3 5 nM, 1 hour room temperature
# Experimental: (§1) The binding affinity of the compounds provided by the present invention to IAP proteins was determined using a fluorescence polarization method (Nikolovska-Colesak et al, Anal. Biochem. 2004, 332:261-73). The recombinant BIR3 domains of human XIAP (residues 238-358), human cIAP1 (residues 255-364) and human cIAP2 (residues 236-342) fusing GST-tags were expressed in E. coli and purified using glutathione agarose 4B affinity chromatography and gel filtration chromatography. A 5-Fam fluorescently modified peptide probe (AbuRPFK(5-Fam)-NH2) was used to test the competitive binding ability of the compounds to the BIR3 domains of XIAP, cIAP1 and cIAP2. The peptide probe (5 nM), XIAP BIR3 (30 nM) or cIAP1 BIR3 (5 nM) or cIAP2 BIR3 (10 nM), and serial diluted compounds were mixed in a test buffer (100 mM potassium phosphate pH 7.5, 100 μg/ml bovine gamma globulin, 0.02% sodium azide, and 1 mM DTT). After incubating the samples at room temperature for 1 hour, the fluorescence polarization values were read using a Tecan microplate reader (FP excitation wavelength 485 nm, […] wavelength 530 nm). The IC50 value was obtained by fitting the curve using nonlinear least square regression with the Graphpad Prism software. The inhibition constant Ki, values were calculated using the Equation Ki, [I]50/([L]50/Kd+[P]0/Kd+1).
# [2] = biological target: BIR3 domain of human cIAP2 (residues 236-342) (Homo sapiens (Human), UniProt Q13489); experiment: Fluorescence polarization competitive binding to cIAP2 BIR3; details: FP, peptide probe 5 nM, cIAP2 BIR3 10 nM, 1 hour room temperature
# Experimental: as §1
# [3] = biological target: BIR3 domain of human XIAP (residues 238-358) (Homo sapiens (Human), UniProt P98170); experiment: Fluorescence polarization competitive binding to XIAP BIR3; details: FP, peptide probe 5 nM, XIAP BIR3 30 nM, 1 hour room temperature
# Experimental: as §1
# [4] = test system: MDA-MB-231 human breast cancer cells; experiment: WST-8 cell proliferation assay, MDA-MB-231; format: cell-based; details: 72 hours
# Experimental: (§2) The effects of the compounds provided by the present invention on the proliferation of different cancer cell lines were tested using the WST-8 assay kit. This method is based on the reduction of WST-8 by dehydrogenase in live cells to form a highly water-soluble yellow Formazan dye. Cells were seeded in a 96-well plate and cultured with the test compounds at 37° C. under 5% CO2 for 72 hours. Afterwards, 10% (v/v) WST-8 was added, and the samples were incubated for an additional 2-3 hours. The absorbance of the samples was measured at 450 nm using a Tecan microplate reader, and the concentration of the compound that inhibited 50% of cell proliferation (IC50, nM) was calculated. The activity of the compounds provided by the present invention was determined in three cancer cell lines: MDA-MB-231 human breast cancer cells, SK-OV-3 human ovarian cancer cells, and PANC1 human pancreatic cancer.
# [5] = test system: SK-OV-3 human ovarian cancer cells; experiment: WST-8 cell proliferation assay, SK-OV-3; format: cell-based; details: 72 hours, read-out: SKOV-3 IC50
# Experimental: as §2
# [6] = test system: PANC1 human pancreatic cancer; experiment: WST-8 cell proliferation assay, PANC1; format: cell-based; details: PANC-1, 72 hours
# Experimental: as §2
# [7] = test system: MDA-MB-231 cancer cells; experiment: Inhibitor-induced apoptosis, flow cytometry with Annexin V and propidium iodide; format: cell-based, human; details: 3 hours
# Experimental: After treating the cells with 10 nM and 100 nM concentrations of the compounds for 3 hours, the induction of apoptosis was analyzed using flow cytometry with Annexin V and propidium iodide staining.
# Sequence of BIR3 domain of human XIAP (residues 238-358) (P98170 238-358): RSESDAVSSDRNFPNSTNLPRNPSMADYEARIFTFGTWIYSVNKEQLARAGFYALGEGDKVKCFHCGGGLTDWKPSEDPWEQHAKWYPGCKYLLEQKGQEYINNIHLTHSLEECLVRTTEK
# Sequence of BIR3 domain of human cIAP2 (residues 236-342) (Q13489 236-342): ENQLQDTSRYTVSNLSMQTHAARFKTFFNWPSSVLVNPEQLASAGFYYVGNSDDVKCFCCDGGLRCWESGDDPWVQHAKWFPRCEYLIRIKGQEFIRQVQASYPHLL
# Sequence of BIR3 domain of human cIAP1 (residues 255-364) (Q13490 255-364): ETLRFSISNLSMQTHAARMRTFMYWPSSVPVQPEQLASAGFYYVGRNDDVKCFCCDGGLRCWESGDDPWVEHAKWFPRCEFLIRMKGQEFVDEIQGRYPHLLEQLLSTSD
smiles,measurement,setting,value
CN[C@@H](C)C(=O)N[C@H](C(=O)N1CCc2[nH]c(=O)c(Cc3ccc(F)cc3F)cc21)C(C)(C)C [Compound I-4-2],pKi,[1],8.89
same,pKi,[2],8.62
same,pKi,[3],8.03
same,pIC50,[4],8.40
same,pIC50,[5],9.00
same,pIC50,[6],7.80
same,Proportion of apoptotic cells,[7]; Drug concentration 10 nM,41%
same,Proportion of apoptotic cells,[7]; Drug concentration 100 nM,54%
